From ChEMBL document CHEMBL1144269, “Carbonic anhydrase inhibitors. Inhibition of isozymes I, II, IV, V, and IX with anions isosteric and isoelectronic with sulfate, nitrate, and carbonate” (Bioorg Med Chem Lett, 2005)

Key:
[1] = biological target: Carbonic anhydrase 9 (Homo sapiens, UniProt Q16790)
[2] = biological target: Carbonic anhydrase 5A, mitochondrial (Homo sapiens, UniProt P35218)
[3] = biological target: Carbonic anhydrase 2 (Homo sapiens, UniProt P00918)
[4] = biological target: Carbonic anhydrase 4 (Homo sapiens, UniProt P22748)
Sequence of Carbonic anhydrase 4 (P22748 whole entry): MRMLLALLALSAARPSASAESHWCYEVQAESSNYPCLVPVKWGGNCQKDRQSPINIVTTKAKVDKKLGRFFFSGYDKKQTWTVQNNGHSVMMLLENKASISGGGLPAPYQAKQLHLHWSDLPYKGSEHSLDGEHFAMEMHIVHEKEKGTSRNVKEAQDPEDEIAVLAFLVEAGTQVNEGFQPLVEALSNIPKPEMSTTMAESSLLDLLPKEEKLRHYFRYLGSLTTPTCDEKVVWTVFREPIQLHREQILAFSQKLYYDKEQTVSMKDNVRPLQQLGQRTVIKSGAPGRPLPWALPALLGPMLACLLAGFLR

[5] = biological target: Carbonic anhydrase 1 (Homo sapiens, UniProt P00915)
Sequence of Carbonic anhydrase 1 (P00915 whole entry): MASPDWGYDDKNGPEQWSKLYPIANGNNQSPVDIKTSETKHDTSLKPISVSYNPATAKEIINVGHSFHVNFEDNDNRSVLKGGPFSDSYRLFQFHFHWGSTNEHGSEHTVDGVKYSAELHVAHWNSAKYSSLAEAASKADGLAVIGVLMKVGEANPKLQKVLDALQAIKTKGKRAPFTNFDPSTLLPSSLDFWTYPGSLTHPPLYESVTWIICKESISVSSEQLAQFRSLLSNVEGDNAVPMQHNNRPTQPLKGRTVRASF

Sequence of Carbonic anhydrase 5A, mitochondrial (P35218 whole entry): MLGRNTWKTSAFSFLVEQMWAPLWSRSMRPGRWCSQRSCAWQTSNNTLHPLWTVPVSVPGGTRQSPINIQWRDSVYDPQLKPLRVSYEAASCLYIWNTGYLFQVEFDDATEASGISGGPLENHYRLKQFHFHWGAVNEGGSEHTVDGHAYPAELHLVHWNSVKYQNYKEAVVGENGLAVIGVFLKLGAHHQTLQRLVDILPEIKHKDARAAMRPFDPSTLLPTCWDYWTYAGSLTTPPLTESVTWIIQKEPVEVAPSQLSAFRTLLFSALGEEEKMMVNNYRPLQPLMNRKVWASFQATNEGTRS

SMILES	Ki [1] [mM]	Ki [2] [mM]	Ki [3] [mM]	Ki [4] [mM]	Ki [5] [mM]
O=C(O)O [BICARBONATE]	0.0086	95			
[O-][Br+2]([O-])O [BROMATE]	274	11.3	12	128	4.79
[O-][Cl+2]([O-])O [CHLORATE]	147	7.12	0.85	64.9	0.54
O=[N+]([O-])O [NITRIC ACID]		16			
[O-][Cl+3]([O-])([O-])O [PERCHLORATE]	11.6	13.6		767	0.69
[O-][I+3]([O-])([O-])O [PERIODATE]	30.3	15.7	75.8	226	14.6
NS(=O)(=O)O [SULFAMATE]	0.0092	0.12			
O=S(=O)(O)O [SULFURIC ACID]	154	680			
